Read-outs that look alike come from different tables or passages of the source. *1 amine or outer side, *2 acyl side, *3 side chain or, on linkers, in order; H or OH if unused. Where a SMILES comes first, the peptide text is derived from it. Bridges are numbered along the chain shown (N, C = ends). [ ]: non-standard residue; d: D form. The star is where a group is joined. X22 = O=C([C@H](Cc1ccc(C(F)(F)F)cc1)N(CC1CCCC1)[*:1])[*:2]; hPhe(3-Cl-4-CF3) = N[C@@H](CCc1ccc(C(F)(F)F)c(Cl)c1)C(=O)O; X31 = COCCCN([C@@H](Cc1ccc(C(F)(F)F)cc1)C(=O)[*:2])[*:1]; NPrPhe(4-CF3) = CCCN[C@@H](Cc1ccc(C(F)(F)F)cc1)C(=O)O; hPhe(3,4-Cl2) = N[C@@H](CCc1ccc(Cl)c(Cl)c1)C(=O)O; NEtPhe(4-Me) = CCN[C@@H](Cc1ccc(C)cc1)C(=O)O; Abu(4,4,4-F3) = N[C@@H](CC(F)(F)F)C(=O)O; NMeGly(cPent) = CN[C@H](C(=O)O)C1CCCC1; Hyp = O=C(O)[C@@H]1C[C@@H](O)CN1; NMeD = CN[C@@H](CC(=O)O)C(=O)O; NMeL = CN[C@@H](CC(C)C)C(=O)O; Morpholide = C1CN(*)CCO1; NMeA = CN[C@@H](C)C(=O)O; Ac5c = NC1(C(=O)O)CCCC1; Aze = O=C(O)[C@@H]1CCN1; Ac4c = NC1(C(=O)O)CCC1; NEtG = CCNCC(=O)O; Sar = CNCC(=O)O
Assays:
[1] = biological target: GDP-bound KRAS wild-type protein (Homo sapiens, UniProt P01116); assay: Binding to KRAS by surface plasmon resonance (SPR), Single Cycle Kinetics; settings: GDP-bound KRAS wild-type protein, read-out: KRAS KD
GDP-bound KRAS wild-type protein, sequence (P01116 whole entry): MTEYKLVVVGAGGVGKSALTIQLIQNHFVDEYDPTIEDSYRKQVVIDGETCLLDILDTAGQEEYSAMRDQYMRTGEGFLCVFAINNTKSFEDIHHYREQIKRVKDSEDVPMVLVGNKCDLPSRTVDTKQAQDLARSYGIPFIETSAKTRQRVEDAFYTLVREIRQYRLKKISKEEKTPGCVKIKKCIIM

[2] = biological target: GDP-bound NRAS wild-type protein (Homo sapiens, UniProt P01111); assay: Binding to NRAS by surface plasmon resonance (SPR), Single Cycle Kinetics; settings: SPR, GDP-bound NRAS wild-type protein vs GDP-bound KRAS wild-type protein
GDP-bound NRAS wild-type protein, sequence (P01111 whole entry): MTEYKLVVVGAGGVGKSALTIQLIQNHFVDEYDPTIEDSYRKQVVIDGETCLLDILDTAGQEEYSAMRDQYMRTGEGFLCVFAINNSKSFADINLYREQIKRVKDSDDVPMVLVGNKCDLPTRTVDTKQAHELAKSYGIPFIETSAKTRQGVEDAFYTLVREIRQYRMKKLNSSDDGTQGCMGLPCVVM

[3] = biological target: GDP-bound HRAS wild-type protein (Homo sapiens, UniProt P01112); assay: Binding to HRAS by surface plasmon resonance (SPR), Single Cycle Kinetics; settings: SPR, GDP-bound HRAS wild-type protein vs GDP-bound KRAS wild-type protein
GDP-bound HRAS wild-type protein, sequence (P01112 whole entry): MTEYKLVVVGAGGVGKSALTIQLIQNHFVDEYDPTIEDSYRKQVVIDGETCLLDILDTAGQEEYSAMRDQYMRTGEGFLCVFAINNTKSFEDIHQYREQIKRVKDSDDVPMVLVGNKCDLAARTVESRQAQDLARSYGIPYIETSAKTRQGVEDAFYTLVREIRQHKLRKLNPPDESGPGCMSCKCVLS

[4] = SPR Single Cycle Kinetics, 1:1 binding model

| SMILES | Kd [1, 4] [nM] | NRAS/KRAS (ratio of KD value for NRAS to KD value for KRAS) [2] | HRAS/KRAS (ratio of KD value for HRAS to KD value for KRAS) [3] | Kd ([1]; SPR, Single Cycle Kinetics) [nM] |
| --- | --- | --- | --- | --- |
| CC[C@H](C)[C@@H]1NC(=O)[C@H](CC(C)C)N(C)C(=O)C[C@@H](C(=O)N2CCOCC2)N(C)C(=O)[C@H](C2CCCC2)N(C)C(=O)C2(CCCC2)NC(=O)[C@@H]2CCCN2C(=O)[C@H](CCc2ccc(C(F)(F)F)c(Cl)c2)NC(=O)CN(C)C(=O)[C@H](Cc2ccc(C(F)(F)F)cc2)N(CCCOC)C(=O)[C@@H]2CCN2C(=O)[C@H](C)N(C)C1=O [PP0119] ([NMeL]I[NMeA][Aze][X31][Sar][hPhe(3-Cl-4-CF3)]P[Ac5c][NMeGly(cPent)][NMeD]-Morpholide; lactam N-11) | 0.1 | C (A compound having a KD ratio of 0.1 or more and less than 3 is denoted as C) | C (A compound having a KD ratio of 0.1 or more and less than 3 is denoted as C) | – |
| CCO[C@@H]1C[C@H]2C(=O)NC3(CCC3)C(=O)N(C)[C@@H](C3CCCC3)C(=O)N(C)[C@H](C(=O)N(C)C)CC(=O)N(C)[C@@H](Cc3ccc(Cl)cc3)C(=O)N[C@@H]([C@@H](C)CC)C(=O)N(C)CC(=O)N(C)[C@H]3CCCCCN(C3=O)[C@@H](Cc3ccc(C(F)(F)F)cc3)C(=O)N(C)CC(=O)N[C@@H](CCc3cc(F)c(C(F)(F)F)c(F)c3)C(=O)N2C1 [PP0940] | – | B (a compound having 3 or more and less than 10 is denoted as B) | C (A compound having a KD ratio of 0.1 or more and less than 3 is denoted as C) | 2 |
| CCCN1C(=O)[C@@H]2CCN2C(=O)[C@H](C)N(C)C(=O)[C@H]([C@@H](C)CC)NC(=O)[C@H](CC(C)C)N(C)C(=O)C[C@@H](C(=O)N2CCOCC2)N(C)C(=O)[C@H](C2CCCC2)N(C)C(=O)C2(CCCC2)NC(=O)[C@@H]2CCCN2C(=O)[C@H](CCc2ccc(Cl)c(Cl)c2)NC(=O)CN(C)C(=O)[C@@H]1Cc1ccc(C(F)(F)F)cc1 [PP0227] ([NMeL]I[NMeA][Aze][NPrPhe(4-CF3)][Sar][hPhe(3,4-Cl2)]P[Ac5c][NMeGly(cPent)][NMeD]-Morpholide; lactam N-11) | 0.26 | C (A compound having a KD ratio of 0.1 or more and less than 3 is denoted as C) | B (a compound having 3 or more and less than 10 is denoted as B) | – |
| CC[C@H](C)[C@@H]1NC(=O)[C@H](CC(C)C)N(C)C(=O)C[C@@H](C(=O)N2CCOCC2)N(C)C(=O)[C@H](C2CCCC2)N(C)C(=O)C2(CCCC2)NC(=O)[C@@H]2CCCN2C(=O)[C@H](CCc2ccc(C(F)(F)F)c(Cl)c2)NC(=O)CN(C)C(=O)[C@H](Cc2ccc(C(F)(F)F)cc2)N(CC2CCCC2)C(=O)CN(C)C(=O)CN(C)C1=O [PP0124] ([NMeL]I[Sar][Sar][X22][Sar][hPhe(3-Cl-4-CF3)]P[Ac5c][NMeGly(cPent)][NMeD]-Morpholide; lactam N-11) | 3.5 | C (A compound having a KD ratio of 0.1 or more and less than 3 is denoted as C) | C (A compound having a KD ratio of 0.1 or more and less than 3 is denoted as C) | – |
| CCC[C@H]1C(=O)N[C@@H](C2CCOCC2)C(=O)N(C)CC(=O)N(C)[C@H]2C/C=C\CCN(C2=O)[C@@H](Cc2ccc(C(F)(F)F)cc2)C(=O)N(C)CC(=O)N[C@@H](CCc2ccc(C(F)(F)F)c(Cl)c2)C(=O)N2C[C@H](OCC)C[C@H]2C(=O)NC2(CC(C)(C)C2)C(=O)N(C)[C@@H](CC(C)(C)C)C(=O)N(C)[C@H](C(=O)N(C)C)CC(=O)N1C [PP3022] | – | AA (a compound having 20 or more is denoted as AA) | A (a compound having 10 or more and less than 20 is denoted as A) | 0.59 |
| CCCN1C(=O)CN(C)C(=O)CN(C)C(=O)[C@H](CC(F)(F)F)NC(=O)[C@H](CC(C)C)N(C)C(=O)C[C@@H](C(=O)N2CCOCC2)N(C)C(=O)[C@H](C2CCCC2)N(C)C(=O)C2(CCCC2)NC(=O)[C@@H]2CCCN2C(=O)[C@H](CCc2ccc(C(F)(F)F)c(Cl)c2)NC(=O)CN(C)C(=O)[C@@H]1Cc1ccc(C(F)(F)F)cc1 [PP0249] ([NMeL][Abu(4,4,4-F3)][Sar][Sar][NPrPhe(4-CF3)][Sar][hPhe(3-Cl-4-CF3)]P[Ac5c][NMeGly(cPent)][NMeD]-Morpholide; lactam N-11) | 0.69 | B (a compound having 3 or more and less than 10 is denoted as B) | C (A compound having a KD ratio of 0.1 or more and less than 3 is denoted as C) | – |
| CC[C@H](C)[C@@H]1NC(=O)[C@H](CC(C)C)N(C)C(=O)C[C@@H](C(=O)N2CCOCC2)N(C)C(=O)[C@H](C2CCCC2)N(C)C(=O)C2(CCCC2)NC(=O)[C@@H]2CCCN2C(=O)[C@H](CCc2ccc(C(F)(F)F)c(Cl)c2)NC(=O)CN(CC)C(=O)[C@H](Cc2ccc(C)cc2)N(CC)C(=O)CN(CC)C(=O)CN(C)C1=O [PP0030] ([NMeL]I[Sar][NEtG][NEtPhe(4-Me)][NEtG][hPhe(3-Cl-4-CF3)]P[Ac5c][NMeGly(cPent)][NMeD]-Morpholide; lactam N-11) | 7.7 | C (A compound having a KD ratio of 0.1 or more and less than 3 is denoted as C) | C (A compound having a KD ratio of 0.1 or more and less than 3 is denoted as C) | – |
| CCO[C@@H]1C[C@H]2C(=O)NC3(CCC3)C(=O)N(C)[C@@H](C3CCCC3)C(=O)N(C)[C@H](C(=O)N(C)C)CC(=O)N(C)[C@@H](C)C(=O)N[C@@H]([C@@H](C)CC)C(=O)N(C)CC(=O)N(C)[C@H]3C/C=C\CCN(C3=O)[C@@H](Cc3ccc(C(F)(F)F)cc3)C(=O)N(C)CC(=O)N[C@@H](CCc3cc(F)c(C(F)(F)F)c(F)c3)C(=O)N2C1 [PP1108, (2S,8S,12R,14S,20S,23S,27S,30S,36S,38Z)-20-cyclopentyl-8-[2-[3,5-difluoro-4-(trifluoromethyl)phenyl]ethyl]-12-ethoxy-N,N,4,19,22,26,27,32,35-nonamethyl-30-[(1S)-1-methylpropyl]-3,6,9,15,18,21,25,28,31,34,42-undecaoxo-2-[[4-(trifluoromethyl)phenyl]methyl]spiro[1,4,7,10,16,19,22,26,29,32,35-undecazatricyclo[34.5.1.0^10,14]dotetracont-38-ene-17,1′-cyclobutane]-23-carboxamide] | – | A (a compound having 10 or more and less than 20 is denoted as A) | A (a compound having 10 or more and less than 20 is denoted as A) | 0.033 |
| CCCN1C(=O)CN(C)C(=O)CN(C)C(=O)[C@H]([C@@H](C)CC)NC(=O)[C@H](CC(C)C)N(C)C(=O)C[C@@H](C(=O)N2CCOCC2)N(C)C(=O)[C@H](C2CCCC2)N(C)C(=O)C2(CCCC2)NC(=O)[C@@H]2C[C@@H](OC)CN2C(=O)[C@H](CCc2ccc(C(F)(F)F)c(Cl)c2)NC(=O)CN(C)C(=O)[C@@H]1Cc1ccc(C(F)(F)F)cc1 [PP0262] ([NMeL]I[Sar][Sar][NPrPhe(4-CF3)][Sar][hPhe(3-Cl-4-CF3)][Hyp](Me)[Ac5c][NMeGly(cPent)][NMeD]-Morpholide; lactam N-11) | 0.044 | B (a compound having 3 or more and less than 10 is denoted as B) | B (a compound having 3 or more and less than 10 is denoted as B) | – |
| CCCN1C(=O)CN(C)C(=O)CN(CC)C(=O)[C@H]([C@@H](C)CC)NC(=O)[C@H](CC(C)C)N(C)C(=O)C[C@@H](C(=O)N(C)C)NC(=O)[C@H](C2CCCC2)N(C)C(=O)C2(CCC2)NC(=O)[C@@H]2C[C@@H](OCC)CN2C(=O)[C@H](CCc2ccc(C(F)(F)F)c(Cl)c2)NC(=O)CN(C)C(=O)[C@@H]1Cc1ccc(C(F)(F)F)cc1 [PP0372] ([NMeL]I[NEtG][Sar][NPrPhe(4-CF3)][Sar][hPhe(3-Cl-4-CF3)][Hyp](Et)[Ac4c][NMeGly(cPent)]D-NMe2; lactam N-11) | 0.79 | B (a compound having 3 or more and less than 10 is denoted as B) | B (a compound having 3 or more and less than 10 is denoted as B) | – |
| CC[C@H](C)[C@@H]1NC(=O)[C@H](COC)N(C)C(=O)C[C@@H](C(=O)N2CCOCC2)N(C)C(=O)[C@H](C2CCCC2)N(C)C(=O)C2(CCC2)NC(=O)[C@@H]2CCN2C(=O)[C@H](CCc2cc(F)c(C(F)(F)F)c(F)c2)NC(=O)CN(C)C(=O)[C@H](Cc2ccc(C(F)(F)F)cc2)N2CCCCC[C@@H](C2=O)N(C)C(=O)CN(C)C1=O [PP0840] | – | B (a compound having 3 or more and less than 10 is denoted as B) | B (a compound having 3 or more and less than 10 is denoted as B) | 5 |
| CCCN1C(=O)[C@@H]2CCN2C(=O)[C@H](C)N(C)C(=O)[C@H]([C@@H](C)CC)NC(=O)[C@H](CC(C)C)N(C)C(=O)C[C@@H](C(=O)N2CCOCC2)N(C)C(=O)[C@H](C2CCCC2)N(C)C(=O)C2(CCCC2)NC(=O)CN(C)C(=O)[C@H](CCc2ccc(C(F)(F)F)c(Cl)c2)NC(=O)CN(C)C(=O)[C@@H]1Cc1ccc(C(F)(F)F)cc1 [PP0287] ([NMeL]I[NMeA][Aze][NPrPhe(4-CF3)][Sar][hPhe(3-Cl-4-CF3)][Sar][Ac5c][NMeGly(cPent)][NMeD]-Morpholide; lactam N-11) | 0.26 | C (A compound having a KD ratio of 0.1 or more and less than 3 is denoted as C) | C (A compound having a KD ratio of 0.1 or more and less than 3 is denoted as C) | – |
